Positions of bridges follow the written chain, without caps; N, C: chain ends. Non-standard residues stand in square brackets, D forms with d. Residues, ends and D or L forms follow the SMILES beside them. Pro(trans-4-F) = O=C(O)[C@@H]1C[C@@H](F)CN1; Gly(octyl) = CCCCCCCC[C@H](N)C(=O)O; Aoc(2) = CCCCCC[C@H](N)C(=O)O; αMeL = CC(C)C[C@](C)(N)C(=O)O; Chg = N[C@H](C(=O)O)C1CCCCC1; hLeu = CC(C)CC[C@H](N)C(=O)O; Pip = O=C(O)[C@@H]1CCCCN1; Ac5c = NC1(C(=O)O)CCCC1; Dap = NC[C@H](N)C(=O)O; Aib = CC(C)(N)C(=O)O; Sar = CNCC(=O)O
Molecular target: T1, human Oxytocin (OTR) receptor (Homo sapiens, UniProt P30559)
T1 construct: expressed in transfected cells
T1 sequence (P30559 1-389): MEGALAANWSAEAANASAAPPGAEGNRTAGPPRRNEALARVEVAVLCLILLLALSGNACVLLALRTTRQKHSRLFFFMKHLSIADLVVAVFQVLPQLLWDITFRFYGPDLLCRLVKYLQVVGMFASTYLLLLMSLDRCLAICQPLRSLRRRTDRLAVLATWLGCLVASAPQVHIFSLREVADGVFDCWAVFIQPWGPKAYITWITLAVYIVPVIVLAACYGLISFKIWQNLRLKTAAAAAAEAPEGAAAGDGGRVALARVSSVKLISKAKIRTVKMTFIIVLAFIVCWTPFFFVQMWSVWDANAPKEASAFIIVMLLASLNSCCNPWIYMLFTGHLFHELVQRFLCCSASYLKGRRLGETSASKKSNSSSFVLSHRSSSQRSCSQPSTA
Assay: Calcium flux assay (FLIPR), agonist mode, CHO cells expressing human OTR
Type: cell-based
Details: for EC50: CHO cells stably expressing human OTR, calcium flux, read-out: hOT EC50; for hOT efficacy (%) / Emax: maximum response normalized to endogenous full agonist = 100%; for Emax: CHO, read-out: hOT efficacy (%)
Source text: Chines Hamster Ovary (CHO) cells were transfected with expression plasmids encoding either the human V1a, the human Oxytocin (OTR) or the humanV2 receptor, the later in combination with the chimeric Gqs5 G protein to redirect the signal to Calcium flux. Stable cells were cloned by limiting dilution to yield monoclonal cell lines expressing either human V1a, human V2+Gqs5 or human OTR receptors and selected based on functional responses detected on a fluorometric imaging plate reader (FLIPR) detecting Calcium flux in the cell after receptor activation.
On the afternoon before the assay, cells were plated at a density of 50,000 cells/well into black 96 well plates with clear bottoms to allow cell inspection and fluorescence measurements from the bottom of each well. The density of cells was sufficient to yield a confluent monolayer the next day. Hanks balanced salt solution, without phenol red, containing 20 mM HEPES (pH 7.3) and 2.5 mM probenecid (assay buffer) was prepared fresh for each experiment. Compound dilutions were made using a Beckman Biomek 2000 laboratory automation workstation, in assay buffer containing 1% DMSO. The dye-loading buffer consisted of a final concentration of 2 μM Fluo-4-AM (dissolved in DMSO and pluronic acid) in assay buffer. […] Once dye-loaded, the cells were washed thoroughly on an Embla cell washer with the assay buffer to remove any unincorporated dye. Exactly 100 μl assay buffer was left in each well.
Each 96 well plate containing dye-loaded cells was placed into the FLIPR machine and the laser intensity set to a suitable level to detect low basal fluorescence. To test compounds as agonists, 25 μl diluted compound was added to the plate 10 seconds into the fluorescent measurements and fluorescent response was recorded for 5 minutes. The fluorescence data was normalized to the endogenous full agonist dose-response set at 100% for the maximum response and 0% for the minimum. […] The concentration of agonist that produced a half-maximal response is represented by the EC50 value, the logarithm of which yielded the pEC50 value.

SMILES | EC50 [nM] | hOT efficacy (%) | Emax [%]
CC[C@H](C)[C@@H]1NC(=O)[C@H](Cc2ccc(O)cc2)NC(=O)CNC(=O)CC[C@@H](C(=O)N2CCC[C@H]2C(=O)N[C@@](C)(CC(C)C)C(=O)NCC(N)=O)NC(=O)[C@H](CC(N)=O)NC(=O)[C@H](CCC(N)=O)NC1=O [Example 36] (GYIQNEP[αMeL]G-NH2; lactam N-6) | 41 | 138 | –
CC[C@H](C)[C@@H]1NC(=O)[C@H](Cc2ccc(O)cc2)NC(=O)CNC(=O)CC[C@@H](C(=O)N(C)CC(=O)N[C@@H](CC(C)C)C(=O)NCC(N)=O)NC(=O)[C@H](CC(N)=O)NC(=O)[C@H](C)NC1=O [Example 37] (GYIANE[Sar]LG-NH2; lactam N-6) | 4 | – | 137
CC[C@H](C)[C@@H]1NC(=O)[C@H](Cc2ccc(O)cc2)NC(=O)CNC(=O)CC[C@@H](C(=O)N(C)CC(=O)N[C@@H](Cc2c[nH]c3ccccc23)C(=O)NCC(N)=O)NC(=O)[C@H](CC(N)=O)NC(=O)[C@H](CCC(N)=O)NC1=O [Example 38] (GYIQNE[Sar]WG-NH2; lactam N-6) | 1 | – | 126
CC[C@H](C)[C@@H]1NC(=O)[C@H](Cc2ccc(O)cc2)NC(=O)CNC(=O)CC[C@@H](C(=O)N(C)CC(=O)N[C@H](C(=O)NCC(N)=O)C2CCCCC2)NC(=O)[C@H](CC(N)=O)NC(=O)[C@H](CCC(N)=O)NC1=O [Example 41] (GYIQNE[Sar][Chg]G-NH2; lactam N-6) | 69 | 117 | –
CC[C@H](C)[C@@H]1NC(=O)[C@H](Cc2ccc(O)cc2)NC(=O)CNC(=O)CC[C@@H](C(=O)N(C)CC(=O)N[C@@H](CN)C(=O)NCC(N)=O)NC(=O)[C@H](CC(N)=O)NC(=O)[C@H](CCC(N)=O)NC1=O [Example 42] (GYIQNE[Sar][Dap]G-NH2; lactam N-6) | 1 | – | 119
CC[C@H](C)[C@@H]1NC(=O)[C@H](Cc2ccc(O)cc2)NC(=O)CNC(=O)CC[C@@H](C(=O)N(C)CC(=O)N[C@@H](CCC(C)C)C(=O)NCC(N)=O)NC(=O)[C@H](CC(N)=O)NC(=O)[C@H](CCC(N)=O)NC1=O [Example 43] (GYIQNE[Sar][hLeu]G-NH2; lactam N-6) | 26 | 124 | –
CC[C@H](C)[C@@H]1NC(=O)[C@H](Cc2ccc(O)cc2)NC(=O)CNC(=O)CC[C@@H](C(=O)N2C[C@H](F)C[C@H]2C(=O)N[C@@H](CC(C)C)C(=O)NCC(N)=O)NC(=O)[C@H](CC(N)=O)NC(=O)[C@H](CCC(N)=O)NC1=O [Example 46] (GYIQNE[Pro(trans-4-F)]LG-NH2; lactam N-6) | 10 | 104 | –
CC[C@H](C)[C@@H]1NC(=O)[C@H](Cc2ccc(O)cc2)NC(=O)CNC(=O)CC[C@@H](C(=O)N2CCCC[C@H]2C(=O)N[C@@H](CC(C)C)C(=O)NCC(N)=O)NC(=O)[C@H](CC(N)=O)NC(=O)[C@H](CCC(N)=O)NC1=O [Example 47] (GYIQNE[Pip]LG-NH2; lactam N-6) | 1.5 | – | 111
CC[C@H](C)[C@@H]1NC(=O)[C@H](Cc2ccc(O)cc2)NC(=O)CNC(=O)CC[C@@H](C(=O)N(C)CC(=O)NC2(C(=O)NCC(N)=O)CCCC2)NC(=O)[C@H](CC(N)=O)NC(=O)[C@H](CCC(N)=O)NC1=O [Example 48] (GYIQNE[Sar][Ac5c]G-NH2; lactam N-6) | 3.6 | – | 108
CC[C@H](C)[C@@H]1NC(=O)[C@H](Cc2ccc(O)cc2)NC(=O)CNC(=O)CC[C@@H](C(=O)N(C)CC(=O)NC(C)(C)C(=O)NCC(N)=O)NC(=O)[C@H](CC(N)=O)NC(=O)[C@H](CCC(N)=O)NC1=O [Example 49] (GYIQNE[Sar][Aib]G-NH2; lactam N-6) | 5.9 | – | 97
CC[C@H](C)[C@@H]1NC(=O)[C@H](Cc2ccc(O)cc2)NC(=O)CNC(=O)CC[C@@H](C(=O)N(C)CC(=O)N[C@@H](CC(C)C)C(=O)NCC(N)=O)NC(=O)[C@H](CC(N)=O)NC(=O)[C@H](CO)NC1=O [Example 52] (GYISNE[Sar]LG-NH2; lactam N-6) | 4.3 | – | 121
CCCCCC[C@H](NC(=O)CN(C)C(=O)[C@@H]1CCC(=O)NCC(=O)N[C@@H](Cc2ccc(O)cc2)C(=O)N[C@@H]([C@@H](C)CC)C(=O)N[C@@H](CCC(N)=O)C(=O)N[C@@H](CC(N)=O)C(=O)N1)C(=O)NCC(N)=O [Example 53] (GYIQNE[Sar][Aoc(2)]G-NH2; lactam N-6) | 1.1 | – | 127
CCCCCCCC[C@H](NC(=O)CN(C)C(=O)[C@@H]1CCC(=O)NCC(=O)N[C@@H](Cc2ccc(O)cc2)C(=O)N[C@@H]([C@@H](C)CC)C(=O)N[C@@H](CCC(N)=O)C(=O)N[C@@H](CC(N)=O)C(=O)N1)C(=O)NCC(N)=O [Example 54] (GYIQNE[Sar][Gly(octyl)]G-NH2; lactam N-6) | 0.8 | – | 134
CC[C@H](C)[C@@H]1NC(=O)[C@H](Cc2ccc(O)cc2)NC(=O)CNC(=O)CC[C@@H](C(=O)N(C)CC(=O)N[C@@H](CC(C)C)C(=O)NCC(N)=O)NC(=O)[C@H](CC(N)=O)NC(=O)[C@H](C(C)C)NC1=O [Example 55] (GYIVNE[Sar]LG-NH2; lactam N-6) | 20 | 104 | –
